Experimental data reported in patent US5968526A, “T cell epitopes of the major allergens from Dermatophagoides (house dust mite)” (Immulogic Pharamaceutical Corporation, priority 1995, dated 1999).

Key:
Type in all cases: cell-based, human
[1] = test system: T cell lines primed in vitro with Der p I; assay: T cell proliferation with fine map and modified Group I peptides (Example XIV); conditions: for positive T cell responses, modified peptides: 18 T cell lines, affinity purified Der p I primed, FIG. 31a
Experimental: Long term T cell lines were established by stimulation of 2×10^6 PBL/ml in bulk cultures of complete medium (RPMI-1640, 2 mM L-glutamine, 100 U/ml penicillin/streptomycin, 5×10^-5 M 2-mercaptoethanol, and 10 mM HEPES supplemented with 5% heat inactivated human AB serum) with 30 μg/ml of purified native Der p I or Der p II for 5-6 days at 37° C. in a humidified 5% CO2 incubator to select for house dust mite protein allergen reactive T cells. This amount of priming antigen was determined to be optimal for the activation of T cells from house dust mite allergic patients. Viable cells were purified by LSM centrifugation and cultured in complete medium supplemented with 5 units recombinant human IL-2/ml and 5 units recombinant human IL-4/ml for up to three weeks until the cells no longer responded to lymphokines and were considered "rested". The ability of the T cells to proliferate to selected peptides, purified Der p I or Der p II, or positive (PHA) controls or negative controls (medium only) was then assessed. For assay, 2×10^4 rested cells were restimulated in the presence of 2×10^4 autologous Epstein-Barr virus (EBV)-transformed B cells (prepared as described below) (gamma-irradiated with 25,000 RADS) or with 5×10^4 autologous PBMs (gamma-irradiated with 3500 RADS), with 2-50 μg/ml of purified native Der p I or Der p II in a volume of 200 μl complete medium in duplicate or triplicate wells in 96-well round bottom plates for 3 days. Each well then received 1 μCi tritiated thymidine for 16-20 hours. The counts incorporated were collected onto glass fiber filter mats and processed for liquid scintillation counting. […] The titrations were used to optimize the dose of peptides in T cell assays.
The maximum response in a titration of each peptide is expressed as the stimulation index (S.I.). The S.I. is the counts per minute (CPM) incorporated by cells in response to peptide, divided by the CPM incorporated by cells in medium only. […] The positive results were used in calculating mean stimulation indices for each peptide for the individual patient tested.
The above procedure was followed with 18 patients in the studies using peptides derived from Der p I and Der f I (FIGS. 31a-b), and 21 patients in the studies with Der p II peptides (FIGS. 32a-b). Individual patient results were used in calculating the mean S.I. for each peptide if the patient responded to the Der p I or Der p II protein at an S.I. of 2.0 or greater and the patient responded to at least one peptide derived from a house dust mite allergen at an S.I. f 2.0 or greater. A summary of positive experiments from the patients tested is shown in FIGS. 32a and 32b and FIGS. 33a and 33b. The bars represent the positivity index. […] In parenthesis above each bar are the mean stimulation indices for each peptide or protein for the group of patients tested.
Autologous EBV-transformed cell lines were γ-irradiated with 25,000 Rad and used as antigen presenting cells in secondary proliferation assays and secondary bulk stimulations. These EBV-transformed cell lines were made by incubating 5×10^6 PBL with 1 ml of B-59/8 Marmoset cell line (ATCC CRL1612, American Type Culture Collection, Rockville, Md.) conditioned medium in the presence of 1 μg/ml phorbol 12-myristate 13-acetate (PMA) at 37° C. for 60 minutes in 12×75 mm polypropylene round-bottom Falcon snap cap tubes (Becton Dickinson Labware, Lincoln Park, N.J.). These cells were then diluted to 1.25×10^6 cells/ml in RPMI-1640 as described above except supplemented with 10% heat-inactivated fetal bovine serum and cultured in 200 μl aliquots in flat bottom culture plates until visible colonies were detected. They were then transferred to larger wells until the cell lines were established.

[2] = test system: T cell lines primed in vitro to Der f I; assay: secondary proliferation of Der f I-primed T cell lines (Examples VI, VII, XI); conditions: for T cell response to Der p I peptides: Der f I primed, 8 positive experiments, FIG. 8
Summary of the method: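 PBMC from house dust mite-allergic patients were primed in vitro with recombinant or affinity-purified Der f I at 20 μg/ml (or 10 μg/ml), then rechallenged with Der f I peptides. Antigen-presenting cells were x-irradiated autologous PBMC (3500 Rads) or EBV-transformed B cells (25,000 Rads). Read-out was T cell proliferation.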

[3] = test system: PBMC from mite-allergic patient; assay: primary T cell (PBMC) proliferation, mite-allergic patient, tritiated thymidine; conditions: medium 1071 ± 30
Summary of the method: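 Ficoll-purified PBMC (5×10^4/well, triplicate) from one mite-allergic donor cultured 7 days at 37 °C with graded concentrations of purified Der p I, Der p II or their peptides in RPMI-1640 plus 5% human AB serum. 1 μCi ^3H-thymidine added for 16 h; CPM counted, stimulation index = antigen CPM/medium-only CPM.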

[4] = test system: T cell lines primed in vitro with Der p II; assay: T cell proliferation with fine map and modified Group II peptides (Example XIV); conditions: for positive T cell responses, modified peptides: 21 T cell lines, Der p II primed, FIG. 32a; for T cell response, Group II peptides: FIGS. 32a-b
Summary of the method: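 Bulk T cell lines primed with 30 μg/ml native Der p I or Der p II for 5-6 days, rested with IL-2/IL-4, then restimulated 3 days with peptides plus irradiated autologous EBV-B cells or PBMs. Proliferation by 16-20 h [3H]thymidine uptake; stimulation index = peptide CPM / medium CPM, averaged over responding patients.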

DF I-22.2: VAATESAYLAYRNTSLDLSEQELVD, amino acid residues 40-64 of Der f I
T cell response, Group I peptides ([1]; FIGS. 31a-b): positive responses | stimulation index, rank in group ([2]; 9 patients, FIG. 16a / 16b): highest stimulation index

DP I-1: Der p I peptide, amino acid residues 1-20 (TNACSINGNAPAEIDLRQMR)
CPM ± S.D. ([3]; 10 μg/ml): 1099 ± 48 CPM | CPM ± S.D. ([3]; 30 μg/ml): 3527 ± 73 CPM | CPM ± S.D. ([3]; 100 μg/ml): 2746 ± 81 CPM | T cell response, Group I peptides ([1]; FIGS. 31a-b): positive response | T cell response to Der p I peptides [2]: respond significantly

DP I-3: Der p I peptide (TVTPIRMQGGCGSCWAFSGVAATESAYLA)
CPM ± S.D. ([3]; 10 μg/ml): 2608 ± 52 CPM | CPM ± S.D. ([3]; 30 μg/ml): 1561 ± 13 CPM | CPM ± S.D. ([3]; 100 μg/ml): 5252 ± 67 CPM | T cell response to Der p I peptides [2]: respond significantly

DP I-21.2: Der p I peptide; unique peptide (SINGNAPAEIDLRQMRTVTPIRMQ)
T cell response, Group I peptides ([1]; FIGS. 31a-b): positive response | positivity index, comparison ([1]; FIGS. 31a-b): higher positivity index then either of the overlapping peptides, DP I-1 and DP I-2

DP I-23.31: modified Der p I peptide; unique peptide (DEEGVVQESYYRYVAREQSCRRPNAE)
positive T cell responses, modified peptides [1]: all eighteen T cell lines responded positively | T cell response, Group I peptides ([1]; FIGS. 31a-b): positive T cell studies

DP I-26.6: modified Der p I peptide; unique peptide (DEGIKDLDAFRHYDGRTIIQRDNGYE)
positive T cell responses, modified peptides [1]: all eighteen T cell lines responded positively | T cell response, Group I peptides ([1]; FIGS. 31a-b): positive T cell studies

DP II-20.9: modified Der p II peptide; unique peptide (DQVDVKDCANHEIKKVLVPGCHGSE)
positive T cell responses, modified peptides [4]: all 21 T cell lines responded positively | T cell response, Group II peptides [4]: positive T cell studies

DP II-22.14: DKELEAVFEANQNTKTAKAE; unique peptide
positive T cell responses, modified peptides [4]: all 21 T cell lines responded positively | T cell response, Group II peptides [4]: positive T cell studies

DP II-22: QLEAVFEANQNTKTAKIEIKASIDGLEV
T cell response, Group II peptides [4]: positive T cell studies
